Source: patent US6277871A, “Inhibitors of protein isoprenyl transferases” (Abbott Laboratories, priority 1999, dated 2001)

target: T1, Rat brain protein farnesyltransferase (Rattus norvegicus, UniProt Q02293+Q04631); test: in vitro inhibition of protein farnesyltransferase (Amersham scintillation proximity assay, biotin-K Ras B fragment substrate); assay type: biochemical; details: 1 × 10^-7 M; protein farnesyltransferase; compared to uninhibited control; read-out: % inhibition at 1 × 10^-7 M
T1 construct: Rat brain protein farnesyltransferase activity is measured; from tissue; host or cells: rat brain
Description: In addition, in vitro inhibition of protein farnesyltransferase may be measured by the following procedure. […] The enzyme is purified according to Reiss, Y., et al., Cell, 62: 81-88 (1990), hereby incorporated by reference, utilizing steps one through three. […]
The % inhibition of protein farnesyltransferase was determined for representative compounds of the invention.

T1 sequence (Q02293 whole entry, the tested form may be a part, one chain of several): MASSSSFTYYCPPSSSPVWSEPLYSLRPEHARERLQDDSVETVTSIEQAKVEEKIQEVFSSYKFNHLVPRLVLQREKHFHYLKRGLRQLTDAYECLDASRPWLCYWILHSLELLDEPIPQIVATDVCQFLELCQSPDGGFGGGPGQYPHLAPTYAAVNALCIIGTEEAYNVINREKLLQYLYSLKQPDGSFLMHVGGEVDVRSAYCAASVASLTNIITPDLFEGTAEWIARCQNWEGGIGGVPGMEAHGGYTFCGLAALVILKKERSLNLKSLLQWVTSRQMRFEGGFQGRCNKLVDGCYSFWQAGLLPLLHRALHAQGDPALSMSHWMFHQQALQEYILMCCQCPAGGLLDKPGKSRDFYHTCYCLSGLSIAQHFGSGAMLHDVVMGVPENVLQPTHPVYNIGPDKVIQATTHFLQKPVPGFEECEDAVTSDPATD

| inhibition at 0.1 µM | SMILES |
| --- | --- |
| 43% | CSCC[C@H](NC(=O)C1=C(c2ccccc2C)CN(C(=O)C=Cc2cncs2)CC1)C(=O)O [Example 2, N-4-[1-(3-[5-thiazolyl]acryloyl)-3-(2-methylphenyl)-1,2,5,6-tetrahydroisonicotinyl]methionine] |
| 100% | CSCC[C@H](NC(=O)C1=C(c2ccccc2C)CN(C(=O)N(Cc2ccccc2)Cc2cncs2)CC1)C(=O)O [Example 3, N-4-[1-(N'-benzyl-5-thiazolmethylaminocarbonyl)-3-(2-methylphenyl)-1,2,5,6-tetrahydroisonicotinyl]methionine] |

Further lines, the compound ahead of its results:

| SMILES | inhibition at 0.1 µM |
| --- | --- |
| CSCC[C@H](NC(=O)C1=C(c2ccccc2C)CN(C(=O)OCCCC2CCCCC2)CC1)C(=O)O [Example 1, N-4-[1-(3-cyclohexylpropyloxycarbonyl)-3-(2-methylphenyl)-1,2,5,6-tetrahydroisonicotinyl]methionine] | 100% |
| CSCC[C@H](NC(=O)C1=C(c2ccccc2C)CN(CCCc2ccccc2)CC1)C(=O)O [Example 4, N-[N'-(3-phenylpropyl)-3-(2-methylphenyl)-1,2,5,6-tetrahydroisonicotinyl]methionine] | 55% |

same assay, conditions: read-out: % inhibition at 1 × 10^-7 M

| SMILES | inhibition at 0.1 µM |
| --- | --- |
| CSCC[C@H](NC(=O)C1=C(c2ccccc2C)CN(S(=O)(=O)N(Cc2ccccc2)Cc2cncs2)CC1)C(=O)O [Example 6, N-4-[1-(N'-benzyl-5-thiazolmethylaminosulfamoyl)-3-(2-methylphenyl)-1,2,5,6-tetrahydroisonicotinyl]methionine] | 90% |
| CSCC[C@H](NC(=O)C1=C(c2ccccc2C)CN(C(=O)Cc2cccnc2)CC1)C(=O)O [Example 5, N-[N'-(3-pyridylacetyl)-3-(2-methylphenyl)-1,2,5,6-tetrahydroisonicotinyl]methionine] | 94% |
